Data taken from PubChem BioAssay AID330 (DTP/NCI, 2004).
“And” between values parts separate entries of the source, which are not always exact repeats. Equal entries are not always repeated. Toxic doses and inconclusive results are not listed.

Test system: P388 leukemia ip, CD2F1 mice, survival T/C
Assay: NCI In Vivo Anticancer Drug Screen. Data for tumor model P388 Leukemia (intraperitoneal) in CD2F1 (CDF1) mice
Settings: endpoint: median survival time, higher = longer survival
In short: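 Mice carrying the transplanted tumor received test compound or vehicle. Survival was recorded in each group, and the value is the treated-group measurement divided by that of the vehicle-treated control group.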

[1] = dose: 50.0 mg/kg/injection, schedule: Q01DX005 (ip), vehicle: Klucel (hydroxypropylcellulose) (HPC)
[2] = dose: 100.0 mg/kg/injection, schedule: Q01DX005 (ip), vehicle: Klucel (hydroxypropylcellulose) (HPC)
[3] = dose: 200.0 mg/kg/injection, schedule: Q01DX005 (ip), vehicle: Klucel (hydroxypropylcellulose) (HPC)
[4] = dose: 50.0 mg/kg/injection, schedule: Q01DX005 (ip), vehicle: saline with Tween-80
[5] = dose: 100.0 mg/kg/injection, schedule: Q01DX005 (ip), vehicle: saline with Tween-80
[6] = dose: 200.0 mg/kg/injection, schedule: Q01DX005 (ip), vehicle: saline with Tween-80
[7] = dose: 50.0 mg/kg/injection, schedule: Q01DX009 (ip), vehicle: saline
[8] = dose: 100.0 mg/kg/injection, schedule: Q01DX009 (ip), vehicle: saline
[9] = dose: 200.0 mg/kg/injection, schedule: Q01DX009 (ip), vehicle: saline
[10] = dose: 25.0 mg/kg/injection, schedule: Q01DX009 (ip), vehicle: saline with Tween-80
[11] = dose: 50.0 mg/kg/injection, schedule: Q01DX009 (ip), vehicle: saline with Tween-80
[12] = dose: 100.0 mg/kg/injection, schedule: Q01DX009 (ip), vehicle: saline with Tween-80
[13] = dose: 200.0 mg/kg/injection, schedule: Q01DX009 (ip), vehicle: saline with Tween-80
[14] = dose: 50.0 mg/kg/injection, schedule: Q01DX009 (ip), vehicle: Klucel (hydroxypropylcellulose) (HPC)
[15] = dose: 100.0 mg/kg/injection, schedule: Q01DX009 (ip), vehicle: Klucel (hydroxypropylcellulose) (HPC)

Structure (SMILES): Cc1nnc2c3c4c(sc3nc(C)n12)CCCC4
- T/C [1]: 94 % of control
- T/C [2]: 98 % of control
- T/C [3]: 104 % of control

Structure (SMILES): CN(C)C1C(=O)C(C(=O)NCNCCC(=O)O)=C(O)C2(O)C(=O)C3=C(O)c4c(O)cccc4C(C)(O)C3CC12 (stereo not given)
- T/C (dose: 50.0 mg/kg/injection, schedule: Q01DX005 (ip), vehicle: saline): 101 % of control
- T/C (dose: 100.0 mg/kg/injection, schedule: Q01DX005 (ip), vehicle: saline): 94 % of control
- T/C (dose: 200.0 mg/kg/injection, schedule: Q01DX005 (ip), vehicle: saline): 101 % of control

Structure (SMILES): CCOC(=O)Nc1ccc(S(=O)(=O)c2ccc(Nc3ccnc4cc(Cl)ccc34)cc2)cc1
- T/C [1]: 94 % of control
- T/C [2]: 98 % of control
- T/C [3]: 91 % of control

Structure (SMILES): N#C/C(=C/c1ccc(Cl)cc1)C(=O)NC(N)=O
- T/C (dose: 100.0 mg/kg/injection, schedule: Q04DX002 (ip), vehicle: saline): 100 % of control
- T/C (dose: 200.0 mg/kg/injection, schedule: Q04DX002 (ip), vehicle: saline): 105 % of control
- T/C (dose: 400.0 mg/kg/injection, schedule: Q04DX002 (ip), vehicle: saline): 107 % of control

Structure (SMILES): O=S(=O)(F)c1ncc2[nH]cnc2n1
- T/C (dose: 12.5 mg/kg/injection, schedule: Q01DX005 (ip), vehicle: saline with Tween-80): 109 % of control
- T/C (dose: 25.0 mg/kg/injection, schedule: Q01DX005 (ip), vehicle: saline with Tween-80): 114 % of control
- T/C [4]: 106 % of control and 111 % of control
- T/C [5]: 108 % of control

Structure (SMILES): CCn1c2ccccc2c2cc(/C=N/Nc3cc(C)nc4cc5c(cc34)OCO5)ccc21
- T/C [1]: 100 % of control
- T/C [2]: 89 % of control

Structure (SMILES): COc1cc2c(cc1C/C=C/c1ccccc1)OCO2
- T/C [4]: 105 % of control
- T/C [5]: 109 % of control
- T/C [6]: 112 % of control

Structure (SMILES): COC(=O)CCCCC1=CCC2C(=O)C=C(O)C2C1 (stereo not given)
- T/C (dose: 60.0 mg/kg/injection, schedule: Q01DX005 (ip), vehicle: saline with Tween-80): 87 % of control
- T/C (dose: 120.0 mg/kg/injection, schedule: Q01DX005 (ip), vehicle: saline with Tween-80): 106 % of control
- T/C (dose: 240.0 mg/kg/injection, schedule: Q01DX005 (ip), vehicle: saline with Tween-80): 116 % of control

Structure (SMILES): CC(=O)c1c(C)cc(C)c(C(C)=O)c1C
- T/C [7]: 102 % of control
- T/C [8]: 96 % of control
- T/C [9]: 91 % of control

Structure (SMILES): NC(Cc1ccc(OC2c3ccccc3-c3ccccc32)cc1)C(=O)O (stereo not given)
- T/C [7]: 100 % of control
- T/C [8]: 91 % of control
- T/C [9]: 87 % of control

Structure (SMILES): CC1=CC(C)(C)N=C2SC(COc3ccccc3)=NN12
- T/C (dose: 25.0 mg/kg/injection, schedule: Q01DX005 (ip), vehicle: Klucel (hydroxypropylcellulose) (HPC)): 116 % of control
- T/C [1]: 109 % of control
- T/C [2]: 107 % of control
- T/C [3]: 104 % of control

Structure (SMILES): CCN(CC)CCCC(C)NC(Cc1ccccc1)c1cccc2ccccc12 (stereo not given)
- T/C (dose: 25.0 mg/kg/injection, schedule: Q01DX005 (ip), vehicle: suspension in saline): 100 % of control
- T/C (dose: 50.0 mg/kg/injection, schedule: Q01DX005 (ip), vehicle: suspension in saline): 106 % of control

Structure (SMILES): FC(F)(Cl)c1nc2nc(Cl)c(Cl)nc2[nH]1
- T/C (dose: 50.0 mg/kg/injection, schedule: Q01DX009 (ip), vehicle: other): 100 % of control
- T/C (dose: 50.0 mg/kg/injection, schedule: Q04DX003 (ip), vehicle: other): 95 % of control
- T/C (dose: 100.0 mg/kg/injection, schedule: Q01DX009 (ip), vehicle: other): 114 % of control
- T/C (dose: 100.0 mg/kg/injection, schedule: Q04DX003 (ip), vehicle: other): 110 % of control
- T/C (dose: 200.0 mg/kg/injection, schedule: Q04DX003 (ip), vehicle: other): 105 % of control

Structure (SMILES): N=C(N)c1ccc(/C=C/c2cc3cc(C(=N)N)ccc3[nH]2)cc1
- T/C (dose: 6.25 mg/kg/injection, schedule: Q04DX003 (ip), vehicle: saline): 101 % of control and 108 % of control
- T/C (dose: 12.5 mg/kg/injection, schedule: Q04DX003 (ip), vehicle: saline): 99 % of control and 102 % of control
- T/C (dose: 25.0 mg/kg/injection, schedule: Q04DX003 (ip), vehicle: saline): 99 % of control and 101 % of control

Structure (SMILES): Cc1cc(O)c(C=O)c2c1C(=O)Oc1c(COC(=O)/C=C/C(=O)O)c(O)c(C(=O)O)c(C)c1O2
- T/C (dose: 0.25 mg/kg/injection, schedule: Q01DX009 (ip), vehicle: saline with Tween-80): 104 % of control
- T/C (dose: 0.5 mg/kg/injection, schedule: Q01DX009 (ip), vehicle: saline with Tween-80): 96 % of control
- T/C (dose: 1.0 mg/kg/injection, schedule: Q01DX009 (ip), vehicle: saline with Tween-80): 101 % of control
- T/C [7]: 90 % of control
- T/C [8]: 90 % of control

Structure (SMILES): CNc1ccc(Nc2c3ccccc3nc3ccccc23)cc1
- T/C (dose: 6.25 mg/kg/injection, schedule: Q04DX002 (ip), vehicle: distilled water + Tween-80): 109 % of control
- T/C (dose: 12.5 mg/kg/injection, schedule: Q04DX002 (ip), vehicle: distilled water + Tween-80): 120 % of control and 124 % of control
- T/C (dose: 25.0 mg/kg/injection, schedule: Q04DX002 (ip), vehicle: distilled water + Tween-80): 118 % of control
- T/C (dose: 50.0 mg/kg/injection, schedule: Q04DX002 (ip), vehicle: distilled water + Tween-80): 160 % of control
- T/C (dose: 100.0 mg/kg/injection, schedule: Q04DX002 (ip), vehicle: distilled water + Tween-80): 194 % of control and 232 % of control

Structure (SMILES): CC(=O)Nc1ccc(C(/C=N\NC(N)=S)=N/NC(N)=S)cc1
- T/C [10]: 99 % of control
- T/C [11]: 97 % of control
- T/C [12]: 105 % of control

Structure (SMILES): COc1cc2cccc(N)c2cc1OC
- T/C (dose: 6.25 mg/kg/injection, schedule: Q01DX009 (ip), vehicle: water): 106 % of control
- T/C (dose: 12.5 mg/kg/injection, schedule: Q01DX009 (ip), vehicle: water): 114 % of control
- T/C (dose: 25.0 mg/kg/injection, schedule: Q01DX009 (ip), vehicle: water): 110 % of control
- T/C (dose: 50.0 mg/kg/injection, schedule: Q01DX009 (ip), vehicle: water): 110 % of control

Structure (SMILES): CC(=O)O[C@H]1CC[C@H]2[C@@H]3CCC4=CC(=O)CC[C@]4(C)[C@H]3[C@H](OC(C)=O)C[C@]12C
- T/C [12]: 95 % of control
- T/C [13]: 100 % of control
- T/C (dose: 400.0 mg/kg/injection, schedule: Q01DX009 (ip), vehicle: saline with Tween-80): 90 % of control

Structure (SMILES): CCN(CC)CCCC(C)Nc1cc(C)c2nc(C)cc(C)c2c1C (stereo not given)
- T/C (dose: 12.5 mg/kg/injection, schedule: Q01DX009 (ip), vehicle: saline): 98 % of control
- T/C (dose: 25.0 mg/kg/injection, schedule: Q01DX009 (ip), vehicle: saline): 97 % of control
- T/C [11]: 100 % of control
- T/C [7]: 90 % of control

Structure (SMILES): O=C1CSC(c2c(F)cccc2Cl)N1c1nncs1 (stereo not given)
- T/C (dose: 60.0 mg/kg/injection, schedule: Q01DX005 (ip), vehicle: Klucel (hydroxypropylcellulose) (HPC)): 102 % of control and 104 % of control
- T/C (dose: 120.0 mg/kg/injection, schedule: Q01DX005 (ip), vehicle: Klucel (hydroxypropylcellulose) (HPC)): 105 % of control

Structure (SMILES): C=CCN1CCCSC1=S
- T/C [14]: 106 % of control
- T/C [15]: 108 % of control

Structure (SMILES): N#CC1C(=O)NC(=S)NC1c1ccc(C2CC(=O)NC(=S)N2)cc1 (stereo not given)
- T/C [11]: 104 % of control
- T/C [12]: 105 % of control
- T/C [13]: 106 % of control

Structure (SMILES): BrCc1ccccc1C[P+](c1ccccc1)(c1ccccc1)c1ccccc1
- T/C (dose: 1.5 mg/kg/injection, schedule: Q01DX009 (ip), vehicle: saline): 113 % of control
- T/C (dose: 3.13 mg/kg/injection, schedule: Q01DX009 (ip), vehicle: saline): 104 % of control

Structure (SMILES): COc1ccc(C(CC(=O)NCCCl)CC(=O)NCCCl)cc1
- T/C (dose: 100.0 mg/kg/injection, schedule: Q01DX001 (ip), vehicle: suspension in saline): 101 % of control
- T/C (dose: 200.0 mg/kg/injection, schedule: Q01DX001 (ip), vehicle: suspension in saline): 100 % of control

Structure (SMILES): CCOC(=O)/C=C(/C)SC1=CC(=O)C=CC1=O
- T/C [4]: 92 % of control
- T/C [5]: 92 % of control
- T/C [6]: 100 % of control

Structure (SMILES): CS(=O)(=O)/C=C/c1ccc[nH]1
- T/C [14]: 98 % of control
- T/C [15]: 99 % of control
- T/C (dose: 200.0 mg/kg/injection, schedule: Q01DX009 (ip), vehicle: Klucel (hydroxypropylcellulose) (HPC)): 99 % of control

Structure (SMILES): CN1CCc2c1cc(-c1ccco1)c1c2N(C)CC1
- T/C [1]: 104 % of control
- T/C [2]: 111 % of control
- T/C [3]: 107 % of control

Structure (SMILES): COc1ccc(OC)c(NC=O)c1
- T/C (dose: 12.5 mg/kg/injection, schedule: Q01DX009 (ip), vehicle: saline with Tween-80): 98 % of control and 86 % of control
- T/C [10]: 98 % of control and 93 % of control and 97 % of control
- T/C [11]: 104 % of control and 97 % of control
- T/C [12]: 99 % of control and 100 % of control and 97 % of control

Structure (SMILES): O=C1NC(Cc2c[nH]c3ccccc23)C(=O)N2CCCC12 (stereo not given)
- T/C [1]: 100 % of control
- T/C [2]: 104 % of control
- T/C [3]: 97 % of control
